Laboratory results reported in ChEMBL document CHEMBL1681745, “Synthesis and photophysical properties of new SNARF derivatives as dual emission pH sensors” (Bioorg Med Chem Lett, 2011).

How the values were obtained:
[1] = Dissociation constant, pKa of the compound by UV spectrum analysis; format: physicochemical
V79 = experiment: Cellular uptake in chinese hamster V79 cells at 10 uM after 1 hr by flow cytometry; format: ADME, cell-based, Cricetulus griseus; details: v79, 1 h

Row | pKa [1] | Drug uptake (V79) | SMILES
1 | 7.38 | Active | CN(C)c1ccc2c(c1)Oc1c(ccc3cc(O)ccc13)C21OC(=O)c2c(F)c(F)c(F)c(F)c21 (stereo unspecified)
2 | 7.62 | Active | C[N+](C)=c1ccc2c(-c3ccccc3C(=O)O)c3ccc4cc(O)ccc4c3oc-2c1
3 | 7.9 | Active | CN(C)c1ccc2c(c1)Oc1c(ccc3cc(O)ccc13)C21OC(=O)c2c(Cl)c(Cl)c(Cl)c(Cl)c21 (stereo unspecified)
